Experimental data as given in ChEMBL document CHEMBL5150069, “Solid-Phase Synthesis of Cereblon-Recruiting Selective Histone Deacetylase 6 Degraders (HDAC6 PROTACs) with Antileukemic Activity” (J Med Chem, 2022).
Blank lines part the entries; values can stand above or below the compound they belong to. Active and inactive are the calls of the source. No cut-off for these calls is given here.

What was measured:
[1] = molecular target: T1, Protein deacetylase HDAC6 (Homo sapiens, UniProt Q9UBN7); experiment: Induction of HDAC6 degradation in human HL-60 cells assessed as hyperacetylation of alpha-tubulin after 6 hrs by Western immunoassay; assay type: cell-based
T1 sequence (Q9UBN7 whole entry): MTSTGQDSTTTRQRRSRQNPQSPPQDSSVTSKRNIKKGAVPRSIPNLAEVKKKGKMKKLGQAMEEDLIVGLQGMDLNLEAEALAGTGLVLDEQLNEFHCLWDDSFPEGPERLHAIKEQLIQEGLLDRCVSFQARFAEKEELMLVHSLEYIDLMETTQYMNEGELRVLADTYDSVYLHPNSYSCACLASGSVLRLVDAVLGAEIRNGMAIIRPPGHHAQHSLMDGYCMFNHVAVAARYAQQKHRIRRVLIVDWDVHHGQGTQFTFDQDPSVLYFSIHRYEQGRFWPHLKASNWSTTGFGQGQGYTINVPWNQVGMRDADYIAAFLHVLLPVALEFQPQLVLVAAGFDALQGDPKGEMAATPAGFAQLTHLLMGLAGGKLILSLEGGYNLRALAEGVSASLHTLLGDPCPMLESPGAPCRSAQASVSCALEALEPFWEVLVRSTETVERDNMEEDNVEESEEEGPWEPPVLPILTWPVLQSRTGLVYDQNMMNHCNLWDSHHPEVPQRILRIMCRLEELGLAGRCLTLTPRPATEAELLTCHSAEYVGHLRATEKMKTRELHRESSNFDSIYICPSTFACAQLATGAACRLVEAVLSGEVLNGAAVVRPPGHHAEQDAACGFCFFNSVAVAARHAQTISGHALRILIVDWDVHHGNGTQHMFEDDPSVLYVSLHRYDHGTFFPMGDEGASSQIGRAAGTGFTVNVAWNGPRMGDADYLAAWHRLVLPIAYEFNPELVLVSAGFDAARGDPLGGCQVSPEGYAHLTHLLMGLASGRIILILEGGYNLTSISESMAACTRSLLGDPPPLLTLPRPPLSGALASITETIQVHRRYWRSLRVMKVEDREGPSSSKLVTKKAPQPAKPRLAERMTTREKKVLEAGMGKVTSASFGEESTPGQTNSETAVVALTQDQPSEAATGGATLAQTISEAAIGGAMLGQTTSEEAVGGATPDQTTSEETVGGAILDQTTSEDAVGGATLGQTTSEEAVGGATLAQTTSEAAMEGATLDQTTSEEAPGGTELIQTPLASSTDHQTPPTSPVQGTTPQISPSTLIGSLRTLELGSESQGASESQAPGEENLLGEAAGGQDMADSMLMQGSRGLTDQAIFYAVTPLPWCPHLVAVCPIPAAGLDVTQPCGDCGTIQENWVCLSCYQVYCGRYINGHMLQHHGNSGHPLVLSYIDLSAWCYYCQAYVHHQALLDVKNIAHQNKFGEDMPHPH

[2] = molecular target: T1, Protein deacetylase HDAC6; experiment: Inhibition of recombinant full length N-terminal GST-tagged human HDAC6 (1 to 1215 residues) using Z-Lys(Ac)-AMC as substrate preincubated for 90 mins followed by trypsin addition and measured after 30 mins by fluorescence based microplate reader analysis
[3] = molecular target: T2, Protein deacetylase HDAC6 (Homo sapiens) (UniProt Q9UBN7); experiment: Induction of HDAC6 degradation in human HL-60 cells assessed as maximum degradation after 6 hrs by Western immunoassay; assay type: cell-based
T2 sequence (whole entry): T1 sequence (Q9UBN7 whole entry)

[4] = molecular target: T1, Protein deacetylase HDAC6; experiment: Induction of HDAC6 degradation in human HL-60 cells after 6 hrs by Western immunoassay; assay type: cell-based
[5] = molecular target: T2, Protein deacetylase HDAC6 (Homo sapiens); experiment: Induction of HDAC6 degradation in human HL-60 cells at 0.1 to 10 uM after 6 hrs by Western blot analysis; assay type: cell-based; details: dose 0.1-10 µM
[6] = molecular target: T2, Protein deacetylase HDAC6 (Homo sapiens); experiment: Induction of HDAC6 degradation in human U-266 cells assessed as hyperacetylation of alpha-tubulin at 100 to 1000 nM incubated for 24 hrs by Western blot analysis; assay type: cell-based; details: dose 100-1000 nM
[7] = molecular target: T2, Protein deacetylase HDAC6 (Homo sapiens); experiment: Induction of HDAC6 degradation in human U-266 cells at 100 to 1000 nM incubated for 24 hrs by Western blot analysis; assay type: cell-based; details: dose 100-1000 nM
[8] = molecular target: T3, Histone deacetylase 1 (Homo sapiens, UniProt Q13547); experiment: Inhibition of recombinant full length C-terminal His/Flag-tagged human HDAC1 (1 to 482 residues) using Z-Lys(Ac)-AMC as substrate preincubated for 90 mins followed by trypsin addition and measured after 30 mins by fluorescence based microplate reader analysis
[9] = molecular target: T2, Protein deacetylase HDAC6 (Homo sapiens); experiment: Induction of HDAC6 degradation in human HL-60 cells assessed as hyperacetylation of alpha-tubulin at 0.1 to 10 uM after 6 hrs by Western blot analysis; assay type: cell-based; details: dose 0.1-10 µM
[10] = molecular target: T2, Protein deacetylase HDAC6 (Homo sapiens); experiment: Induction of Hitbit-fused HDAC6 degradation in human K562 cells at 1 uM after 5.5 to 7.5 hrs by NanoGlo HiBit lytic assay; assay type: cell-based; details: time 5.5-7.5 hrs
[11] = molecular target: T2, Protein deacetylase HDAC6 (Homo sapiens); experiment: Induction of HDAC6 degradation in human HL-60 cells at 1 uM after 3 to 6 hrs by fluorescence microscopy analysis; assay type: cell-based; details: time 3-6 hrs
[12] = tested on: MOLM-13; experiment: Induction of apoptosis in human MOLM-13 cells after 48 hrs by Annexin-V and PI staining based flow cytometry assay; assay type: functional, cell-based; details: dose 8-24 µM, DDE = dose-dependent effect
[13] = tested on: MOLM-13; experiment: Cytotoxicity against human MOLM-13 cells assessed as reduction in cell viability incubated for 72 hrs by ATP based Celltiter-glo luminescent assay; assay type: functional; details: MOLM-13, 72 h
[14] = tested on: MOLM-13; experiment: Induction of cell cycle arrest in human MOLM-13 cells assessed as increase in sub-G1 phase population at 8 uM incubated for 48 hrs by PI staining based flow cytometry analysis (reference value: […]); assay type: functional
[15] = molecular target: T2, Protein deacetylase HDAC6 (Homo sapiens); experiment: Induction of HDAC6 degradation in human HL-60 cells at 100 nM after 3 hrs by fluorescence microscopy analysis; assay type: cell-based
[16] = tested on: MOLM-13; experiment: Induction of cell cycle arrest in human MOLM-13 cells assessed as increase in sub-G1 phase population at 16 uM incubated for 48 hrs by PI staining based flow cytometry analysis (reference value: […]); assay type: functional
[17] = tested on: MOLM-13; experiment: Induction of cell cycle arrest in human MOLM-13 cells assessed as increase in sub-G1 phase population incubated for 48 hrs by PI staining based flow cytometry analysis; assay type: functional; details: dose 8-24 µM, DDE = dose-dependent effect
[18] = molecular target: T2, Protein deacetylase HDAC6 (Homo sapiens); experiment: Induction of HDAC6 degradation in human HL-60 cells assessed as hyperacetylation of histone H3 at 1 uM after 24 hrs; assay type: cell-based
[19] = molecular target: T3, Histone deacetylase 1; experiment: Induction of HDAC1 degradation in human HL-60 cells assessed as hyperacetylation of histone H3 at 0.1 to 10 uM after 6 hrs by Western blot analysis; assay type: cell-based; details: dose 0.1-10 µM
[20] = tested on: MOLM-13; experiment: Induction of cell cycle arrest in human MOLM-13 cells assessed as increase in sub-G1 phase population at 24 uM incubated for 48 hrs by PI staining based flow cytometry analysis (reference value: […]); assay type: functional
[21] = molecular target: T2, Protein deacetylase HDAC6 (Homo sapiens); experiment: Induction of HDAC6 degradation in human HL-60 cells at 100 nM after 6 hrs by fluorescence microscopy analysis; assay type: cell-based
[22] = tested on: MOLM-13; experiment: Induction of cell cycle arrest in human MOLM-13 cells assessed as reduction in G2/M phase population incubated for 48 hrs by PI staining based flow cytometry analysis; assay type: functional; details: dose 8-24 µM, DDE = dose-dependent effect

T3 sequence (Q13547 whole entry, the tested form may be a part): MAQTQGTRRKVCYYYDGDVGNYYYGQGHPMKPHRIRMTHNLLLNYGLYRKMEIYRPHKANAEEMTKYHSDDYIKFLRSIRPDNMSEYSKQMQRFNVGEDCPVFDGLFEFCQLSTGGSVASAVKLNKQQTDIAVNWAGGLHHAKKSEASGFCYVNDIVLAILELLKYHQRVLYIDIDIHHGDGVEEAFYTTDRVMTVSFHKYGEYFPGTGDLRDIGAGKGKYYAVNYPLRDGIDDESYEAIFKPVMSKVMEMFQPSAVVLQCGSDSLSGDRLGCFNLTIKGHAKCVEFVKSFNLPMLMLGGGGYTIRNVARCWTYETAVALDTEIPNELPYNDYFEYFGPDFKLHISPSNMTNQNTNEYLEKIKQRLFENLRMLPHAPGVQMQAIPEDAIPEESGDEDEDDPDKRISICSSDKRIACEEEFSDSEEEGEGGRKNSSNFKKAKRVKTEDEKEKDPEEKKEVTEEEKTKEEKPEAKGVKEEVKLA

EC50 [1]: 5450 nM
IC50 [2]: 647 nM
Emax [3]: 92.8%
DC50 [4]: 19.4 nM
Activity [5]: Active
Activity [6]: Active
Activity [7]: Active
IC50 [8]: 647 nM
Activity [9]: Active
Activity [10]: Active
SMILES: Cc1nc2cc(NC(=O)CCCCCCCNC(=O)COc3cccc4c3C(=O)N(C3CCC(=O)NC3=O)C4=O)ccc2n1Cc1ccc(C(=O)NO)cc1F (stereo not drawn)

Activity [5]: Active
SMILES: O=C(CCCCCCNC(=O)c1ccc(NC(=O)COCCOCCNC(=O)COc2cccc3c2C(=O)N(C2CCC(=O)NC2=O)C3=O)cc1)NO (stereo not drawn)

IC50 [2]: 12 nM
IC50 [8]: 155 nM
SMILES: O=C(CCCCCCNC(=O)c1ccc(NC(=O)COCCNC(=O)COc2cccc3c2C(=O)N(C2CCC(=O)NC2=O)C3=O)cc1)NO (stereo not drawn)

Activity [11]: Active
Emax [3]: 84.5%
Activity [15]: Active
Activity [5]: Active
Activity [6]: Active
Activity [7]: Active
Activity [18]: Active
Activity [19]: Active
Activity [21]: Active
Activity [9]: Active
Activity [10]: Active
SMILES: O=C(CCCCCCNC(=O)c1ccc(NC(=O)CCCCCCCNC(=O)COc2cccc3c2C(=O)N(C2CCC(=O)NC2=O)C3=O)cc1)NO (stereo not drawn)
Activity [12]: Dde
IC50 [13]: 17400 nM
Activity [14]: 7.5%
Activity [16]: 9.9%
Activity [17]: Dde
Activity [20]: 13.4%
Activity [22]: Dde

IC50 [2]: 15 nM
IC50 [8]: 186 nM
SMILES: O=C(CCCCCCNC(=O)c1ccc(NC(=O)CCOCCOCCOCCOCCNC(=O)CNc2cccc3c2C(=O)N(C2CCC(=O)NC2=O)C3=O)cc1)NO (stereo not drawn)

IC50 [2]: 1420 nM
IC50 [8]: 1420 nM
SMILES: Cc1nc2cc(NC(=O)CCOCCOCCOCCOCCNC(=O)CNc3cccc4c3C(=O)N(C3CCC(=O)NC3=O)C4=O)ccc2n1Cc1ccc(C(=O)NO)cc1F (stereo not drawn)

IC50 [2]: 1490 nM
IC50 [8]: 1490 nM
SMILES: Cc1nc2cc(NC(=O)CCOCCOCCOCCOCCNC(=O)COc3cccc4c3C(=O)N(C3CCC(=O)NC3=O)C4=O)ccc2n1Cc1ccc(C(=O)NO)cc1F (stereo not drawn)

IC50 [2]: 20.8 nM
IC50 [8]: 208 nM
SMILES: O=C(CCCCCCNC(=O)c1ccc(NC(=O)CCOCCOCCOCCOCCNC(=O)COc2cccc3c2C(=O)N(C2CCC(=O)NC2=O)C3=O)cc1)NO (stereo not drawn)

IC50 [2]: 1310 nM
IC50 [8]: 1310 nM
SMILES: Cc1nc2cc(NC(=O)CCOCCOCCOCCNC(=O)COc3cccc4c3C(=O)N(C3CCC(=O)NC3=O)C4=O)ccc2n1Cc1ccc(C(=O)NO)cc1F (stereo not drawn)

IC50 [2]: 17 nM
IC50 [8]: 161 nM
SMILES: O=C(CCCCCCNC(=O)c1ccc(NC(=O)CCOCCOCCOCCNC(=O)COc2cccc3c2C(=O)N(C2CCC(=O)NC2=O)C3=O)cc1)NO (stereo not drawn)
